Measured values reported in US12522583B2, “Benzimidazole derivatives and aza-benzimidazole derivatives as Janus kinase 2 inhibitors and uses thereof” (Dana-Farber Cancer Institute, Inc., priority 2018, dated 2026).

Assays:
Assay in all cases: KINOMEscan
Type in all cases: binding
Conditions in all cases: read-out: percent control
[1] = target: ERBB3 (Homo sapiens (Human), UniProt P21860)
From the text: (§1) Example 2. In Vitro Kinase Selectivity Profiling of the Compounds of the Present Disclosure

[2] = target: LIMK1 (Homo sapiens (Human), UniProt P53667)
From the text: as §1

[3] = target: HIPK4 (Homo sapiens (Human), UniProt Q8NE63)
From the text: as §1

[4] = target: MAP3K4 (Homo sapiens (Human), UniProt Q9Y6R4)
From the text: as §1

[5] = target: MYLK4 (Homo sapiens (Human), UniProt Q86YV6)
MYLK4, sequence (Q86YV6 whole entry): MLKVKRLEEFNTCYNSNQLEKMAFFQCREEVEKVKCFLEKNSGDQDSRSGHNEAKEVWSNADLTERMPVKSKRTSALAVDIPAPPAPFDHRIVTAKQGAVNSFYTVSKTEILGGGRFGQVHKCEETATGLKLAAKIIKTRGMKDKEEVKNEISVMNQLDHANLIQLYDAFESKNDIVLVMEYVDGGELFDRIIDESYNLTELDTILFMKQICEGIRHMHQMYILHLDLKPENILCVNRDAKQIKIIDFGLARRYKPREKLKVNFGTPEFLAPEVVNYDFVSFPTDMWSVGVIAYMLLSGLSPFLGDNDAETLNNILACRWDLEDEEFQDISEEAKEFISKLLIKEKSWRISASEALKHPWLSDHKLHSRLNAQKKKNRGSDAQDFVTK
From the text: as §1

[6] = target: RPS6KA5(Kin.Dom.1-terminal) (Homo sapiens (Human), UniProt O75582)
From the text: as §1

[7] = target: LTK (Homo sapiens (Human), UniProt P29376)
From the text: as §1

[8] = target: KIT(D816H) (Homo sapiens (Human), UniProt P10721, D816H)
From the text: as §1

[9] = target: NEK4 (Homo sapiens (Human), UniProt P51957)
From the text: as §1

[10] = target: ABL1(F317I)-nonphosphorylated (Homo sapiens (Human), UniProt P00519, F317I)
From the text: as §1

[11] = target: LATS1 (Homo sapiens (Human), UniProt O95835)
From the text: as §1

[12] = target: PKAC-alpha (Homo sapiens (Human), UniProt P17612)
From the text: as §1

[13] = target: PIK3CA(H1047Y) (Homo sapiens (Human), UniProt P42336, H1047Y)
PIK3CA(H1047Y), sequence (P42336 whole entry H1047Y): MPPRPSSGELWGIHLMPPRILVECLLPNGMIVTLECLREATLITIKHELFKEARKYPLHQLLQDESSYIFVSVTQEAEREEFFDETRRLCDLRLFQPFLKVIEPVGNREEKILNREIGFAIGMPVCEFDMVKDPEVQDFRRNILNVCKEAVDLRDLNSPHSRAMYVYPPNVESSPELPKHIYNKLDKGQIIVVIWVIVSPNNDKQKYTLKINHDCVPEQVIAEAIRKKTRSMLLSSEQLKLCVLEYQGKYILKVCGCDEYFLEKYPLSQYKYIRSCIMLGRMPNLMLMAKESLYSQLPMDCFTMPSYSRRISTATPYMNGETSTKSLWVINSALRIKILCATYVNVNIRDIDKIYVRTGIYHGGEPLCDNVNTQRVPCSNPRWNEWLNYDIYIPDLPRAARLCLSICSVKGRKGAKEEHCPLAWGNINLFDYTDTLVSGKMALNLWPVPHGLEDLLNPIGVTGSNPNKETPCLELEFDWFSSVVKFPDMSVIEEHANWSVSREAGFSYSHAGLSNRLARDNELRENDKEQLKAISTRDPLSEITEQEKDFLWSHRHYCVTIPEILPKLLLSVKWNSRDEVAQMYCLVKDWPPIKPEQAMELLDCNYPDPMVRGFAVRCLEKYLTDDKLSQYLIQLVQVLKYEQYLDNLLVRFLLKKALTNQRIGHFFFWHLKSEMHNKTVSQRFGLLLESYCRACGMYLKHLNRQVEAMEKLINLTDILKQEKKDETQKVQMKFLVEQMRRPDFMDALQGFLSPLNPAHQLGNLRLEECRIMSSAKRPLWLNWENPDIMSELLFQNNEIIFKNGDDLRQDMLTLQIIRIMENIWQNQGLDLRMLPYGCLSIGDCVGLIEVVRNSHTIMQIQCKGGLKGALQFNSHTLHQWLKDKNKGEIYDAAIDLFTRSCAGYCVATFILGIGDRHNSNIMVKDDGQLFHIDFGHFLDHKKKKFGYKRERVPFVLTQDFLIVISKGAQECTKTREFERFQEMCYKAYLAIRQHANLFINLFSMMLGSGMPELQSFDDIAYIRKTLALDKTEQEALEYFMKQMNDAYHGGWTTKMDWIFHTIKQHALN
From the text: as §1

[14] = target: RET(M918T) (Homo sapiens (Human), UniProt P07949, M918T)
From the text: as §1

[15] = target: MARK2 (Homo sapiens (Human), UniProt Q7KZI7)
From the text: as §1

[16] = target: NIK (Homo sapiens (Human), UniProt Q99558)
From the text: as §1

[17] = target: PRKCI (Homo sapiens (Human), UniProt P41743)
From the text: as §1

[18] = target: PIP5K1A (Homo sapiens (Human), UniProt Q99755)
From the text: as §1

[19] = target: CSF1R (Homo sapiens (Human), UniProt P07333)
From the text: as §1

[20] = target: TYK2(JH1domain-catalytic) (Homo sapiens (Human), UniProt P29597)
From the text: as §1

[21] = target: FER (Homo sapiens (Human), UniProt P16591)
FER, sequence (P16591 whole entry): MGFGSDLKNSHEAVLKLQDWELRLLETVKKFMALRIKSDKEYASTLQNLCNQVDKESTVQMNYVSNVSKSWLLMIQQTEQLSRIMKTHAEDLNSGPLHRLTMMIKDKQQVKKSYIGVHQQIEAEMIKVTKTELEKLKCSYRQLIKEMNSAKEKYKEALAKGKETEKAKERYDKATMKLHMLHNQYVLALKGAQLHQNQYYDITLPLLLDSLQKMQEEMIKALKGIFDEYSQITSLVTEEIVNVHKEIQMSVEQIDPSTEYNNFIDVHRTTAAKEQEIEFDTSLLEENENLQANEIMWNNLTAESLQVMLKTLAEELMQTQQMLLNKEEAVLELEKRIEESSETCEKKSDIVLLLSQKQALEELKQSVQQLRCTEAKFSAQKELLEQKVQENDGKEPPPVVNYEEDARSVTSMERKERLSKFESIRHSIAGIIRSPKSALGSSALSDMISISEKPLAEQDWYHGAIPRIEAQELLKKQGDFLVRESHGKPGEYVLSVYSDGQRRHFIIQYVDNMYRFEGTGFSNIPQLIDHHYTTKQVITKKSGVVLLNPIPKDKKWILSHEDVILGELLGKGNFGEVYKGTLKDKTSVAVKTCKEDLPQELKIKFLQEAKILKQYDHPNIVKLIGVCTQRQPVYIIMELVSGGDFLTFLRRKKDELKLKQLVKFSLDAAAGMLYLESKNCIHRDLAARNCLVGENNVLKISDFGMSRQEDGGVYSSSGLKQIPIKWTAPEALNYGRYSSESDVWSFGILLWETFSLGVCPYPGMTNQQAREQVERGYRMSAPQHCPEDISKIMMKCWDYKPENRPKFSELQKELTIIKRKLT
From the text: as §1

[22] = target: TAOK3 (Homo sapiens (Human), UniProt Q9H2K8)
From the text: as §1

[23] = target: MST4 (Homo sapiens (Human), UniProt Q9P289)
From the text: as §1

[24] = target: PIK3CA(E542K) (Homo sapiens (Human), UniProt P42336, E542K)
PIK3CA(E542K), sequence (P42336 whole entry E542K): as the sequence (P42336 whole entry H1047Y) above, with E542K, Y1047H counted along it
From the text: as §1

[25] = target: LRRK2 (Homo sapiens (Human), UniProt Q5S007)
From the text: as §1

[26] = target: p38-beta (Homo sapiens (Human), UniProt Q15759)
From the text: as §1

[27] = target: CSNK1A1 (Homo sapiens (Human), UniProt P48729)
CSNK1A1, sequence (P48729 whole entry): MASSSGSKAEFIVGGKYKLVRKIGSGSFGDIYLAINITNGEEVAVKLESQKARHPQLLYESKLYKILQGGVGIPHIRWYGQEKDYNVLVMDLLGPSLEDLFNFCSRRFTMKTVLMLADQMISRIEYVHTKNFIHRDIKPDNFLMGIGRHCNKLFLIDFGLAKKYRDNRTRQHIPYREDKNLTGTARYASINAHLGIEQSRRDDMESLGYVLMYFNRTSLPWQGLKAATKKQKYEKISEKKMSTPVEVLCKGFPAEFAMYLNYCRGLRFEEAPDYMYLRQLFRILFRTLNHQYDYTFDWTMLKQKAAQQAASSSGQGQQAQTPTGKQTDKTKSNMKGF
From the text: as §1

[28] = target: NDR1 (Homo sapiens (Human), UniProt Q15208)
NDR1, sequence (Q15208 whole entry): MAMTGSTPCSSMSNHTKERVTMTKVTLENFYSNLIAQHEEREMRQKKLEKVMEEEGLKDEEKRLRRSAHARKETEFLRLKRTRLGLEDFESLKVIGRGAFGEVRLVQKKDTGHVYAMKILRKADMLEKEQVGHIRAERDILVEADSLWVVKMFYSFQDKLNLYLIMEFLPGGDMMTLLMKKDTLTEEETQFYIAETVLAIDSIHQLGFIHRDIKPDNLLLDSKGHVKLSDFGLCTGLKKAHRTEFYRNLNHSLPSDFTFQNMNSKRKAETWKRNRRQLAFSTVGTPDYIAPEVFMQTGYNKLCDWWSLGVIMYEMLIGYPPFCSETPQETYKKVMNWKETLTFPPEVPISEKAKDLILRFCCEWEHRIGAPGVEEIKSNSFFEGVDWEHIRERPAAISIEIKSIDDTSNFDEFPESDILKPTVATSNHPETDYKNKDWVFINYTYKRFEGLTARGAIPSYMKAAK
From the text: as §1

[29] = target: CSNK1D (Homo sapiens (Human), UniProt P48730)
From the text: as §1

[30] = target: LRRK2(G20195) (Homo sapiens (Human), UniProt Q5S007, G2019S)
From the text: as §1

[31] = target: CDC2L5 (Homo sapiens (Human), UniProt Q14004)
From the text: as §1

[32] = target: KIT(L576P) (Homo sapiens (Human), UniProt P10721, L576P)
From the text: as §1

[33] = target: GSK3A (Homo sapiens (Human), UniProt P49840)
From the text: as §1

[34] = target: CDK11 (Homo sapiens (Human), UniProt Q9BWU1)
CDK11, sequence (Q9BWU1 whole entry): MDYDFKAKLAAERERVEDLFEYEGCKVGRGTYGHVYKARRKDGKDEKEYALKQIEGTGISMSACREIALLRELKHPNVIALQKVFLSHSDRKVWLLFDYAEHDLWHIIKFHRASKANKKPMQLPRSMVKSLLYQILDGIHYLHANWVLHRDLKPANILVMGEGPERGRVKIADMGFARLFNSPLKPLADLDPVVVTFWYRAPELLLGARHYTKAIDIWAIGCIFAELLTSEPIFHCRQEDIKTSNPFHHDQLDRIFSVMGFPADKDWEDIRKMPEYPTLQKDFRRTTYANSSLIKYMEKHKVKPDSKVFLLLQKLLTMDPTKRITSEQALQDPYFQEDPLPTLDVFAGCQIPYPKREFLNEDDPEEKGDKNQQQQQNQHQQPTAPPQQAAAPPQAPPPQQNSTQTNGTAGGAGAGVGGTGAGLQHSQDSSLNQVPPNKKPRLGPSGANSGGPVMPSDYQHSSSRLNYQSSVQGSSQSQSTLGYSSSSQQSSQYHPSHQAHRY
From the text: as §1

[35] = target: RSK2(Kin.Dom.2-C-terminal) (Homo sapiens (Human), UniProt P51812)
From the text: as §1

[36] = target: RET(V804M) (Homo sapiens (Human), UniProt P07949, V804M)
From the text: as §1

[37] = target: CLK1 (Homo sapiens (Human), UniProt P49759)
From the text: as §1

[38] = target: EPHB6 (Homo sapiens (Human), UniProt O15197)
From the text: as §1

[39] = target: PFTK1 (Homo sapiens (Human), UniProt O94921)
From the text: as §1

ERBB3, sequence (P21860 20-1342): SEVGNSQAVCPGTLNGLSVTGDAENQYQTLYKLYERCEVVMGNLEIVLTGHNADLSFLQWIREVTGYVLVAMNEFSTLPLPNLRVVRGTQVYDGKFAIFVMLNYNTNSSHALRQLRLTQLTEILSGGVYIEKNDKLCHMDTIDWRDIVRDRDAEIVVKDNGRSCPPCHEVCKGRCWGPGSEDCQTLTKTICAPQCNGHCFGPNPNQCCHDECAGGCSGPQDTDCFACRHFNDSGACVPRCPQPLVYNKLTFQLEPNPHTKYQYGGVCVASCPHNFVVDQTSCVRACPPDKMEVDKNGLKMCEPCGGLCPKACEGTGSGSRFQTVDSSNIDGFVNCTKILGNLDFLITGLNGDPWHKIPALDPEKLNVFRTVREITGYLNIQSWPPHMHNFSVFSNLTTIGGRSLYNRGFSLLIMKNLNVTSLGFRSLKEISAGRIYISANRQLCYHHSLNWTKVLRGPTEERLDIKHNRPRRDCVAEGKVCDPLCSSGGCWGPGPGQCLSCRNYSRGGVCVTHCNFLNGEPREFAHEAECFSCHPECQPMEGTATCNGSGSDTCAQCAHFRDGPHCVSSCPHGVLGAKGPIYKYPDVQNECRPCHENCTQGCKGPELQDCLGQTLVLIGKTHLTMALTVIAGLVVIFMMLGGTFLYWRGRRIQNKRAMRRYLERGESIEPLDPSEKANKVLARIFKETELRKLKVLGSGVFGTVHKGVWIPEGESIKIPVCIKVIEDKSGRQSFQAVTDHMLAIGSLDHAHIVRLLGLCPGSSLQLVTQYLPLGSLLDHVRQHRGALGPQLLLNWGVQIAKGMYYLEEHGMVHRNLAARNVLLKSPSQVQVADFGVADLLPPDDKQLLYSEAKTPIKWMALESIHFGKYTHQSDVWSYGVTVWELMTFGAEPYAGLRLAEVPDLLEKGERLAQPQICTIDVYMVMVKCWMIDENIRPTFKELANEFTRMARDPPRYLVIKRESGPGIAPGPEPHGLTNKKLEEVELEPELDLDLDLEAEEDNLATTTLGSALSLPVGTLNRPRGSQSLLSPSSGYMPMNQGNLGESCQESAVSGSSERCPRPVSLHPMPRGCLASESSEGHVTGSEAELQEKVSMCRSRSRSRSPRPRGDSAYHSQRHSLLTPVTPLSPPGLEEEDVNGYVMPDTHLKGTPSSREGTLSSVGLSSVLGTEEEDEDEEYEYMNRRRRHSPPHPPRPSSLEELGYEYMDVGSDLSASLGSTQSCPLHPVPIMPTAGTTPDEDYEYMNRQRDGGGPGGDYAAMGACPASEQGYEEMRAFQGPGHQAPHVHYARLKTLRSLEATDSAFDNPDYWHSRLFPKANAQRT

| SMILES | remaining binding at 1 µM [1] [%] | remaining binding at 1 µM [2] [%] | remaining binding at 1 µM [3] [%] | remaining binding at 1 µM [4] [%] | remaining binding at 1 µM [5] [%] | remaining binding at 1 µM [6] [%] | remaining binding at 1 µM [7] [%] | remaining binding at 1 µM [8] [%] | remaining binding at 1 µM [9] [%] | remaining binding at 1 µM [10] [%] | remaining binding at 1 µM [11] [%] | remaining binding at 1 µM [12] [%] | remaining binding at 1 µM [13] [%] | remaining binding at 1 µM [14] [%] | remaining binding at 1 µM [15] [%] | remaining binding at 1 µM [16] [%] | remaining binding at 1 µM [17] [%] | remaining binding at 1 µM [18] [%] | remaining binding at 1 µM [19] [%] | remaining binding at 1 µM [20] [%] | further results |
| --- | --- | --- | --- | --- | --- | --- | --- | --- | --- | --- | --- | --- | --- | --- | --- | --- | --- | --- | --- | --- | --- |
| CCN1CCN(Cc2ccc(Nc3nc4ccc(Oc5ccnc(NC(C)=O)c5)cc4n3C)cc2C(F)(F)F)CC1 [Compound I-2] | 62 | 100 | 100 | 100 | 100 | 96 | 61 | 22 | 56 | 37 | 42 | 65 | 62 | 0.8 | 100 | 100 | 95 | 99 | 0.1 | 23 | remaining binding at 1 µM [21]: 91%; remaining binding at 1 µM [22]: 41%; remaining binding at 1 µM [23]: 89%; remaining binding at 1 µM [24]: 100%; remaining binding at 1 µM [25]: 100%; remaining binding at 1 µM [26]: 100%; remaining binding at 1 µM [27]: 72%; remaining binding at 1 µM [28]: 90%; remaining binding at 1 µM [29]: 100%; remaining binding at 1 µM [30]: 100%; remaining binding at 1 µM [31]: 59%; remaining binding at 1 µM [32]: 0.2%; remaining binding at 1 µM [33]: 85%; remaining binding at 1 µM [34]: 1.5%; remaining binding at 1 µM [35]: 98%; remaining binding at 1 µM [36]: 9.9%; remaining binding at 1 µM [37]: 87%; remaining binding at 1 µM [38]: 72%; remaining binding at 1 µM [39]: 94% |
| CCN1CCN(Cc2ccc(Nc3nc4ccc(Oc5ccnc(NC(C)=O)c5)c(C)c4n3C)cc2C(F)(F)F)CC1 [Compound I-6, N-(4-(2-(4-((4-ethylpiperazin-1-yl)methyl)-3-(trifluoromethyl)phenylamino)-1,7-dimethyl-1H-benzo[d]imidazol-6-yloxy)pyridin-2-yl)acetamide] | 89 | 65 | 100 | 60 | 96 | 74 | 22 | 44 | 56 | 7.4 | 95 | 57 | 86 | 0.15 | 100 | 100 | 71 | 100 | 0.35 | 36 | remaining binding at 1 µM [21]: 100%; remaining binding at 1 µM [22]: 13%; remaining binding at 1 µM [23]: 100%; remaining binding at 1 µM [24]: 100%; remaining binding at 1 µM [25]: 86%; remaining binding at 1 µM [26]: 94%; remaining binding at 1 µM [27]: 100%; remaining binding at 1 µM [28]: 100%; remaining binding at 1 µM [29]: 100%; remaining binding at 1 µM [30]: 69%; remaining binding at 1 µM [31]: 3.8%; remaining binding at 1 µM [32]: 0%; remaining binding at 1 µM [33]: 93%; remaining binding at 1 µM [34]: 1.6%; remaining binding at 1 µM [35]: 99%; remaining binding at 1 µM [36]: 4.5%; remaining binding at 1 µM [37]: 94%; remaining binding at 1 µM [38]: 95%; remaining binding at 1 µM [39]: 61% |
